Source: PubChem BioAssay AID1919005 (Molecular Pharmacology Branch, DTP, NCI, 2023)

System: 855422-203-R-J1-PDC complex spheroid growth
Assay: Anticancer human tumor 855422-203-R-J1-PDC patient-derived bladder carcinoma cell line growth inhibition [AhR]
Conditions: for IC50: curve of first compound; for viability, T/C: stronger effect = lower value
In short: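 Agents were dosed in half-log steps down from roughly clinical Cmax, or from 10 microM where Cmax was unknown, alone and with AhR antagonists. Read-out: percent test/control growth of tumor spheroids containing HUVEC and MSC stromal cells.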

[1] = second compound 0.1 µM, first compound 0.000316 µM
[2] = second compound 0.1 µM, first compound 0.001 µM
[3] = second compound 0.1 µM, first compound 0.00316 µM
[4] = second compound 0.1 µM, first compound 0.01 µM
[5] = second compound 0.1 µM, first compound 0.0316 µM
[6] = second compound 0.1 µM, first compound 0.1 µM
[7] = second compound 0.316 µM, first compound 0.000316 µM
[8] = second compound 0.316 µM, first compound 0.001 µM
[9] = second compound 0.316 µM, first compound 0.00316 µM
[10] = second compound 0.316 µM, first compound 0.01 µM
[11] = second compound 0.316 µM, first compound 0.0316 µM
[12] = second compound 0.316 µM, first compound 0.1 µM
[13] = second compound 1 µM, first compound 0.000316 µM
[14] = second compound 1 µM, first compound 0.001 µM
[15] = second compound 1 µM, first compound 0.00316 µM
[16] = second compound 1 µM, first compound 0.01 µM
[17] = second compound 1 µM, first compound 0.0316 µM
[18] = second compound 1 µM, first compound 0.1 µM
[19] = second compound 3.16 µM, first compound 0.000316 µM
[20] = second compound 3.16 µM, first compound 0.001 µM
[21] = second compound 3.16 µM, first compound 0.00316 µM
[22] = second compound 3.16 µM, first compound 0.01 µM
[23] = second compound 3.16 µM, first compound 0.0316 µM
[24] = second compound 3.16 µM, first compound 0.1 µM
[25] = second compound 10 µM, first compound 0.000316 µM
[26] = second compound 10 µM, first compound 0.001 µM
[27] = second compound 10 µM, first compound 0.00316 µM
[28] = second compound 10 µM, first compound 0.01 µM
[29] = second compound 10 µM, first compound 0.0316 µM
[30] = second compound 10 µM, first compound 0.1 µM
[31] = second compound 0.1 µM, first compound 0.00949 µM
[32] = second compound 0.1 µM, first compound 0.03 µM
[33] = second compound 0.1 µM, first compound 0.0949 µM
[34] = second compound 0.1 µM, first compound 0.3 µM
[35] = second compound 0.316 µM, first compound 0.00949 µM
[36] = second compound 0.316 µM, first compound 0.03 µM
[37] = second compound 0.316 µM, first compound 0.0949 µM
[38] = second compound 0.316 µM, first compound 0.3 µM
[39] = second compound 1 µM, first compound 0.00949 µM
[40] = second compound 1 µM, first compound 0.03 µM
[41] = second compound 1 µM, first compound 0.0949 µM
[42] = second compound 1 µM, first compound 0.3 µM
[43] = second compound 3.16 µM, first compound 0.00949 µM
[44] = second compound 3.16 µM, first compound 0.03 µM
[45] = second compound 3.16 µM, first compound 0.0949 µM
[46] = second compound 3.16 µM, first compound 0.3 µM
[47] = second compound 10 µM, first compound 0.00949 µM
[48] = second compound 10 µM, first compound 0.03 µM
[49] = second compound 10 µM, first compound 0.0949 µM
[50] = second compound 10 µM, first compound 0.3 µM
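Also: spheroids exposed to agents for seven days before readout.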
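For viability, T/C in this document: percent of DMSO vehicle control luminescence viability.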

CC[C@@]1(O)C(=O)OCc2c1cc1n(c2=O)Cc2cc3c(CN(C)C)c(O)ccc3nc2-1 + Cc1cncc(-c2nc(NCCc3c[nH]c4ccccc34)c3ncn(C(C)C)c3n2)c1
IC50 (second compound 0.1 µM): 37.8 nM | IC50 (second compound 0.316 µM): 33.7 nM | IC50 (second compound 1 µM): 25.7 nM | IC50 (second compound 3.16 µM): 18.1 nM | IC50 (second compound 10 µM): < 0.316 nM | viability, T/C [1]: 95.4% | viability, T/C [2]: 85.9% | viability, T/C [3]: 103% | viability, T/C [4]: 91.5% | viability, T/C [5]: 56.8% | viability, T/C [6]: 13.1% | viability, T/C [7]: 89.6% | viability, T/C [8]: 87.1% | viability, T/C [9]: 93.6% | viability, T/C [10]: 89.6% | viability, T/C [11]: 52.2% | viability, T/C [12]: 11.6% | viability, T/C [13]: 91.4% | viability, T/C [14]: 90.6% | viability, T/C [15]: 80.8% | viability, T/C [16]: 78.1% | viability, T/C [17]: 43.6% | viability, T/C [18]: 12% | viability, T/C [19]: 77.3% | viability, T/C [20]: 83.7% | viability, T/C [21]: 74.3% | viability, T/C [22]: 68.5% | viability, T/C [23]: 33% | viability, T/C [24]: 11.7% | viability, T/C [25]: 13.4% | viability, T/C [26]: 8.89% | viability, T/C [27]: 4.65% | viability, T/C [28]: 6.18% | viability, T/C [29]: 3.7% | viability, T/C [30]: 1.73%

Nc1ncn(C2CC(O)C(CO)S2)c(=O)n1 (stereo not given) + Cc1cncc(-c2nc(NCCc3c[nH]c4ccccc34)c3ncn(C(C)C)c3n2)c1
IC50 (second compound 0.1 µM): > 300 nM | IC50 (second compound 0.316 µM): > 300 nM | IC50 (second compound 1 µM): > 300 nM | IC50 (second compound 3.16 µM): 1.28 nM | IC50 (second compound 10 µM): < 0.949 nM | viability, T/C (second compound 0.1 µM, first compound 0.000949 µM): 92.3% | viability, T/C (second compound 0.1 µM, first compound 0.003 µM): 101% | viability, T/C [31]: 92.9% | viability, T/C [32]: 90.4% | viability, T/C [33]: 84.7% | viability, T/C [34]: 72.2% | viability, T/C (second compound 0.316 µM, first compound 0.000949 µM): 90.1% | viability, T/C (second compound 0.316 µM, first compound 0.003 µM): 83.8% | viability, T/C [35]: 77.4% | viability, T/C [36]: 85% | viability, T/C [37]: 78.2% | viability, T/C [38]: 69.8% | viability, T/C (second compound 1 µM, first compound 0.000949 µM): 74.1% | viability, T/C (second compound 1 µM, first compound 0.003 µM): 88.2% | viability, T/C [39]: 77.3% | viability, T/C [40]: 73.6% | viability, T/C [41]: 79.1% | viability, T/C [42]: 77.1% | viability, T/C (second compound 3.16 µM, first compound 0.000949 µM): 49.1% | viability, T/C (second compound 3.16 µM, first compound 0.003 µM): 51.8% | viability, T/C [43]: 41.9% | viability, T/C [44]: 25.1% | viability, T/C [45]: 42% | viability, T/C [46]: 37.5% | viability, T/C (second compound 10 µM, first compound 0.000949 µM): 28.3% | viability, T/C (second compound 10 µM, first compound 0.003 µM): 26.9% | viability, T/C [47]: 19.7% | viability, T/C [48]: 15.5% | viability, T/C [49]: 22.8% | viability, T/C [50]: 24.3%

COc1cc(Nc2ncc3c(n2)-c2ccc(Cl)cc2C(c2c(F)cccc2OC)=NC3)ccc1C(=O)O + Cc1cncc(-c2nc(NCCc3c[nH]c4ccccc34)c3ncn(C(C)C)c3n2)c1
IC50 (second compound 0.1 µM): > 10000 nM | IC50 (second compound 0.316 µM): > 10000 nM | IC50 (second compound 1 µM): 987 nM | IC50 (second compound 3.16 µM): 995 nM | IC50 (second compound 10 µM): < 31.6 nM | viability, T/C [5]: 104% | viability, T/C [6]: 101% | viability, T/C (second compound 0.1 µM, first compound 0.316 µM): 61.5% | viability, T/C (second compound 0.1 µM, first compound 1 µM): 55% | viability, T/C (second compound 0.1 µM, first compound 3.16 µM): 50.6% | viability, T/C (second compound 0.1 µM, first compound 10 µM): 45.4% | viability, T/C [11]: 98.7% | viability, T/C [12]: 94.8% | viability, T/C (second compound 0.316 µM, first compound 0.316 µM): 61.4% | viability, T/C (second compound 0.316 µM, first compound 1 µM): 52.4% | viability, T/C (second compound 0.316 µM, first compound 3.16 µM): 52.5% | viability, T/C (second compound 0.316 µM, first compound 10 µM): 50.7% | viability, T/C [17]: 99% | viability, T/C [18]: 90.5% | viability, T/C (second compound 1 µM, first compound 0.316 µM): 63.2% | viability, T/C (second compound 1 µM, first compound 1 µM): 49.3% | viability, T/C (second compound 1 µM, first compound 3.16 µM): 48.6% | viability, T/C (second compound 1 µM, first compound 10 µM): 48.2% | viability, T/C [23]: 82.8% | viability, T/C [24]: 75.9% | viability, T/C (second compound 3.16 µM, first compound 0.316 µM): 59.7% | viability, T/C (second compound 3.16 µM, first compound 1 µM): 48.6% | viability, T/C (second compound 3.16 µM, first compound 3.16 µM): 52.2% | viability, T/C (second compound 3.16 µM, first compound 10 µM): 44.8% | viability, T/C [29]: 27.9% | viability, T/C [30]: 26.7% | viability, T/C (second compound 10 µM, first compound 0.316 µM): 14.8% | viability, T/C (second compound 10 µM, first compound 1 µM): 11.4% | viability, T/C (second compound 10 µM, first compound 3.16 µM): 22.5% | viability, T/C (second compound 10 µM, first compound 10 µM): 26.4%

CCN(c1cc(-c2ccc(CN3CCOCC3)cc2)cc(C(=O)NCc2c(C)cc(C)[nH]c2=O)c1C)C1CCOCC1 + CC(CO)NC(=O)c1cc(-c2ccc(Cl)cc2)nn(-c2cnn(C)c2)c1=O
IC50 (second compound 0.1 µM): > 3000 nM | IC50 (second compound 0.316 µM): > 3000 nM | IC50 (second compound 1 µM): > 3000 nM | IC50 (second compound 3.16 µM): > 3000 nM | IC50 (second compound 10 µM): > 3000 nM | viability, T/C [31]: 94.1% | viability, T/C [32]: 102% | viability, T/C [33]: 94.3% | viability, T/C [34]: 95.7% | viability, T/C (second compound 0.1 µM, first compound 0.949 µM): 86.2% | viability, T/C (second compound 0.1 µM, first compound 3 µM): 88.5% | viability, T/C [35]: 112% | viability, T/C [36]: 109% | viability, T/C [37]: 100% | viability, T/C [38]: 95.5% | viability, T/C (second compound 0.316 µM, first compound 0.949 µM): 92.1% | viability, T/C (second compound 0.316 µM, first compound 3 µM): 92.6% | viability, T/C [39]: 100% | viability, T/C [40]: 105% | viability, T/C [41]: 114% | viability, T/C [42]: 94.5% | viability, T/C (second compound 1 µM, first compound 0.949 µM): 91.9% | viability, T/C (second compound 1 µM, first compound 3 µM): 88.8% | viability, T/C [43]: 98.6% | viability, T/C [44]: 95.2% | viability, T/C [45]: 103% | viability, T/C [46]: 94.1% | viability, T/C (second compound 3.16 µM, first compound 0.949 µM): 86% | viability, T/C (second compound 3.16 µM, first compound 3 µM): 77.4% | viability, T/C [47]: 96.5% | viability, T/C [48]: 102% | viability, T/C [49]: 83.5% | viability, T/C [50]: 92.8% | viability, T/C (second compound 10 µM, first compound 0.949 µM): 103% | viability, T/C (second compound 10 µM, first compound 3 µM): 80.7%

CC[C@@]1(O)C(=O)OCc2c1cc1n(c2=O)Cc2cc3c(CN(C)C)c(O)ccc3nc2-1 + Cc1ccccc1N=Nc1ccc(NC(=O)c2ccnn2C)c(C)c1
IC50 (second compound 0.1 µM): 86.1 nM | IC50 (second compound 0.316 µM): 65.1 nM | IC50 (second compound 1 µM): 62 nM | IC50 (second compound 3.16 µM): 31.9 nM | IC50 (second compound 10 µM): 30.5 nM | viability, T/C [1]: 104% | viability, T/C [2]: 103% | viability, T/C [3]: 106% | viability, T/C [4]: 97.9% | viability, T/C [5]: 90.4% | viability, T/C [6]: 43.7% | viability, T/C [7]: 96.7% | viability, T/C [8]: 101% | viability, T/C [9]: 94.1% | viability, T/C [10]: 97.2% | viability, T/C [11]: 77.8% | viability, T/C [12]: 33.5% | viability, T/C [13]: 110% | viability, T/C [14]: 98.3% | viability, T/C [15]: 95.2% | viability, T/C [16]: 98.7% | viability, T/C [17]: 74.7% | viability, T/C [18]: 31.9% | viability, T/C [19]: 97.4% | viability, T/C [20]: 96.4% | viability, T/C [21]: 89.3% | viability, T/C [22]: 87.1% | viability, T/C [23]: 49.9% | viability, T/C [24]: 30.8% | viability, T/C [25]: 88.1% | viability, T/C [26]: 81.7% | viability, T/C [27]: 87.6% | viability, T/C [28]: 86.9% | viability, T/C [29]: 48.7% | viability, T/C [30]: 29.7%
